“Also recorded” adds a separate entry of the source. Values belong to the compound of their own block, whether it stands above or below them.
Tests used:
mTOR [1] = experiment: In vivo pharmacodynamic experiment, OVCAR8 mouse model, mTOR; conditions: dose of 500 mg/kg
Description: (§1) In vivo model of ovarian cancer: Pharmacodynamic study and therapeutic experiment using OVCAR8 ovarian cancer model were performed. FIGS. 8A-8B show the cytotoxic effect of GP-2250 on ovarian cancer cells.
(§2) FIGS. 11A-11B show pharmacodynamics studies of GP-2250.

AKT [2] = experiment: Western blotting of ovarian cancer cells, AKT; assay type: cell-based, human; conditions: treated 24 hours, Western blot
Description: (§3) GP-2250 inhibits mTOR, AKT and HIF-1α expression.
(§4) Human Ovarian cancer cell lines: A2780, Coav3, HeyA8, HeyA8-MDR, Kuramochi, OVCAR3, OVCAR5, OVCAR8, and SKOV3 were obtained and used in studies.
(§5) In vitro assays: Cell viability assay, Western blotting, Colony formation assay, Reverse-phase protein array, and Ultra-high resolution mass spectrometry analysis were performed.

[3] = system: hypoxia-inducible factor-la; experiment: Reverse Phase Protein Array (RPPA), HIF-1α; assay type: cell-based, human
Description: as §5

mTOR [4] = experiment: Western blotting of ovarian cancer cells, mTOR; assay type: cell-based, human; conditions: treated 24 hours, Western blot
Description: as §3, §4, §5

hexokinase 2 = experiment: Hexokinase activity and expression (ultra-high resolution mass spectrometry, FIG. 10); assay type: cell-based, human
Description: as §5
(§6) (ns, not significant, **P<0.01; **P<0.001 (vs. control; Student t-test)).

AKT [5] = experiment: Reverse Phase Protein Array (RPPA), AKT; assay type: cell-based, human
Description: as §5

ovarian cancer cells = experiment: Cell viability assay / cytotoxic effect in ovarian cancer cell lines; assay type: cell-based, human
Description: as §4, §5, §1

VEGF = VEGF secretion in cancer cells; assay type: cell-based; conditions: compared to vehicle
Excerpt: as §3

OVCAR8-L = experiment: In vivo therapy experiment, orthotopic OVCAR8-L ovarian cancer mouse model; parameters: species or system mice; conditions: GP-2250 500 mg/kg 3 times per week, bevacizumab 6.25 mg/kg, take down day 49
Description: FIG. 5 schematically illustrates the experimental design for in vivo testing of the GP-2250 and bevacizumab on OVCAR8-L mice. The experiment includes testing: 1) IgG control (10 mice, 6.25 mg/kg, BW); 2) GP-2250 (10 mice, 500 mg/kg. 3 times per week); 3) Bevacizumab (10 mice, 6.25 mg/kg, BW) (“BEV”); and 4) the combination of GP-2250 and Bevacizumab.
Tumorigenicity of OVCAR8-L was determined using IVIS imaging. IVIS imaging following OCVAR8-L injection. 1×10^6 cells were injected through i.p., and then tumorigenicity was measured. All mice were injected with high-grade ovarian cancer cells (OVCAR8) labeled with luciferase gene by i.p. route. All mice survived until the end of the study. No mice were euthanized due to the effect of tumor. Five weeks after treatment, all mice were euthanized, body weight was measured, and no significant body weight change in each group.
as §1

mTOR [6] = experiment: Reverse Phase Protein Array (RPPA), mTOR; assay type: cell-based, human
Description: as §5

[7] = system: human endothelial cell (hEC) spheroids; experiment: Spheroid assay, VEGF-induced endothelial sprouting; assay type: cell-based
Description: A spheriod assay was performed including growing human endothelial cell (hEC) spheroids and adding VEGF (1000 cells/spheroid; 200 sph/condition) for 24 hours using a hanging drog procedure with methyl-cellulose, then harvesting, adding GP-2250, and suspending in fibrinogen/thrombin matrix. The suspension was then transferred to a 24 well plate and incubated for 24 hours at 37° C. FIG. 1: VEGF-induced Endothelial Sprouting: Impact of GP-2250, Spheroid assay. […] Tip cells form sprouts, and stalk cells form capillary lumen as shown in the image (bottom).
FIG. 4 quantifies the effects of PBS control, Delta-like 4 (DLL4), and GP-2250 (at 2.5 μg/ml or at 10 μg/ml) on VEGF-induced endothelial cell sprouting.

AKT [8] = experiment: In vivo pharmacodynamic experiment, OVCAR8 mouse model, AKT; conditions: dose of 500 mg/kg
Description: as §1, §2

cancer cells = experiment: Glycolysis and ATP synthesis in cancer cells; assay type: cell-based
Excerpt: as §6

HIF1α = experiment: Western blotting of ovarian cancer cells, HIF1α; assay type: cell-based, human; conditions: treated 24 hours, Western blot
Description: as §3, §4, §5

[9] = 2.5 μg/ml or 10 μg/ml, compared to control

- hexokinase 2 activity and expression (hexokinase 2; ultra-high resolution mass spectrometry (HRMS) analysis): significantly reduced
Compound: O=S1(=O)CCOCN1 [GP-2250]
- downregulating mTOR activation and expression (mTOR [1]): most effective
- AKT expression (AKT [2]): inhibits
- hypoxia-inducible factor-la activation and expression level [3]: inhibited
- mTOR expression (mTOR [4]): inhibits
- hexokinase activity and protein expression levels (hexokinase 2; FIG. 10C): inhibits hexokinase activity and protein expression levels
- AKT activation and expression level (AKT [5]): inhibited
- apoptosis in ovarian cancer cells (ovarian cancer cells): increased apoptosis
- proliferation in ovarian cancer cells (ovarian cancer cells): reduced proliferation
- cancer cell viability (ovarian cancer cells; FIG. 10D, with siRNA targeting hexokinase 1 and hexokinase 2): reduces cancer cell viability
- cytotoxic effect, vulnerability of HRD versus HRP ovarian cancer cells (ovarian cancer cells; HRD (Kuramochi, OVCAR4, OVCAR8) vs HRP (A2780, OVCAR5), 10 ovarian cancer cell lines): more vulnerable to GP-2250 than Homologous Recombination Proficiency (HRP) ovarian cancer cells
- VEGF secretion in cancer cells (VEGF): significantly reduced VEGF secretion
- nodules (tumor nodule number) (OVCAR8-L): 2.9±0.48
- tumor weight (OVCAR8-L): 2.9 ± 0.48 g
- mTOR activation and expression level (mTOR [6]): inhibited
- number of sprouts per spheroid [7, 9]: statistically significant reductions
- total sprout length [7, 9]: statistically significant reductions
- VEGF-induced endothelial cell sprouting ([7]; GP-2250 10 μg/ml, 24 hours): inhibits VEGF-induced endothelial cell sprouting
- downregulating AKT activation and expression (AKT [8]): most effective
- ATP synthesis in cancer cells (cancer cells): reduced
- glycolysis in cancer cells (cancer cells): decreases glycolysis; also recorded: reduced glycolysis
- HIF1α expression in cancer cells (HIF1α): reduced HIF1α expression

Compound: bevacizumab: recombinant humanized monoclonal IgG1 antibody that specifically binds to and blocks the biological effects of VEGF [reference compound]
- nodules (tumor nodule number) (OVCAR8-L): 3.8±0.71
- tumor weight (OVCAR8-L): 0.43 ± 0.08 g

Reference: patent publication US20260021106A1, “COMBINATION THERAPY FOR TREATING CANCERS” (GEISTLICH PHARMA AG, priority 2022, published 2026)
